24 molecules from patent publication US20180092866A1, “SUBSTITUTED N-([1,1'-BIPHENYL]-3-YL)-[1,1'-BIPHENYL]-3-CARBOXAMIDE ANALOGS AS INHIBITORS FOR BETA-CATENIN/B-CELL LYMPHOMA 9 INTERACTIONS” (University of Utah Research Foundation, priority 2015, published 2018) can be followed below.

Where a name gives a salt, the structure may show the parent alone.

The first experiment deals with T1, β-catenin/BCL9 protein-protein interactions (Homo sapiens, UniProt P35222).
T1 construct: C-terminally His6-tagged wild-type or mutant β-catenin (residues 138-686) proteins; made in house; host or cells: E. coli BL21 DE3
T1 sequence (P35222 138-686): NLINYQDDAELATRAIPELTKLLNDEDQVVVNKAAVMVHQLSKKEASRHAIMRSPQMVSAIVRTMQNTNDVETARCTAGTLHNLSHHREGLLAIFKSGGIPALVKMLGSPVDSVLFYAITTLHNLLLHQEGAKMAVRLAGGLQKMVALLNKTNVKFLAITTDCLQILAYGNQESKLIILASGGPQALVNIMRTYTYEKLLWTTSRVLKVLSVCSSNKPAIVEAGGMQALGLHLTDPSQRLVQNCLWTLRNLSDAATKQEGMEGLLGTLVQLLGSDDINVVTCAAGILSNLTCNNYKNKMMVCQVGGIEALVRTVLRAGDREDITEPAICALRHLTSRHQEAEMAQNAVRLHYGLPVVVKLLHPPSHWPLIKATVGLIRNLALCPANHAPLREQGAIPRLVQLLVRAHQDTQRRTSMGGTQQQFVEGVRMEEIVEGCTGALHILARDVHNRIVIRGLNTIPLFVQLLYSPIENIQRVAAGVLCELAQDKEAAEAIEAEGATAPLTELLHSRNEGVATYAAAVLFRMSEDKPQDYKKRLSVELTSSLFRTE
Description: AlphaScreen competitive inhibition assay, wild-type β-catenin/BCL9. Type of experiment: binding. To be noted: AlphaScreen assay, comparison with named compound. As to the method: The purity of the wild-type and mutant β-catenin proteins was all greater than 95% as determined by the SDS-PAGE gel analysis. Both the wild-type and mutant β-catenin proteins are stable under the testing conditions. Native non-denaturing gel electrophoresis was performed to confirm the homogeneity of the purified proteins. Experiments were performed in white opaque 384-well plates from PerkinElmer, and the samples were read on a Synergy 2 plate reader (Biotek) with a sensitivity setting of 200 using AlphaScreen protocol with excitation at 680 nm and emission at 570 nm. All dilutions were made in 1×assay buffer containing 25 mM HEPES (pH=7.0), 100 mM NaCl, 0.01% Triton X-100, and 0.1% BSA. In the AlphaScreen competitive inhibition assay, 40 nM of C-terminally His6-tagged wild-type or mutant β-catenin (residues 138-686) proteins was incubated with 5 nM of N-terminal biotinylated human BCL9 26-mer (residues 350-375) for 30 min at 4° C., and then different concentrations of the tested inhibitors in the assay buffer were added to make a final volume of 20 μL. The mixture was incubated at 4° C. for 2 h. The donor and acceptor beads were added to a final concentration of 10 μg/mL in 25 μL of assay buffer. The mixture was incubated at 4° C. for 1 h. The IC50 value was determined by nonlinear least-square analysis of GraphPad Prism 5.0. […] The Ki values were derived from the IC50 values by a reported method (Nikolovska-Coleska et al. (2004) Anal. Biochem. […]: 261-273). Experiments were performed in triplicate and carried out in the presence of 1% DMSO.
(In Alpha technology, singlet oxygen from a donor bead excites a nearby acceptor bead.)
In the case of `Cl.NCCOc1ccc(C(=O)Nc2cccc(-c3ccc(F)cc3)c2)cc1-c1ccc(F)c(F)c1` [Compound 13, 2-((3′,4′-Difluoro-5-((4′-fluoro-[1,1′-biphenyl]-3-yl)carbamoyl)-[1,1′-biphenyl]-2-yl)oxy) ethanaminium chloride], the “relative inhibitory potency for β-catenin/BCL9 PPIs (in words)” value is “higher potency than 14”.

For the molecule `NC(=O)c1ccc(CCCO)c(-c2ccc(F)cc2)c1` [Compound 8, 4′-Fluoro-6-(3-hydroxypropyl)-[1,1′-biphenyl]-3-carboxamide], the “relative inhibitory potency for β-catenin/BCL9 PPIs (in words)” value is reported as “less potent than 6”.

Still in this experiment, the particulars now being: AlphaScreen assay, relative to compound 4.
On to `Cl.NCCCc1ccc(C(N)=O)cc1-c1ccc(F)cc1` [Compound 6, 3-(5-Carbamoyl-4′-fluoro-[1,1′-biphenyl]-2-yl) propan-1-aminium chloride], for which the “fold more potent than 4” value was found to be 5 fold.

Staying with this experiment, now noted: wild-type β-catenin (residues 138-686)/biotinylated BCL9 26-mer; Ki derived from IC50; mean ± SD.
As to `NS(=O)(=O)c1ccc(-c2cc(NC(=O)c3ccc(O[C@H]4CCNC4)c(-c4ccc(F)c(F)c4)c3)ccc2O[C@H]2CCNC2)cc1` [Compound 91i, 3′,4′-Difluoro-6-((S)-pyrrolidin-3-yloxy)-N-(6-((S)-pyrrolidin-3-yloxy)-4′-sulfamoyl-[1,1′-biphenyl]-3-yl)-[1,1′-biphenyl]-3-carboxamide dihydrochloride], the Ki – broadly, the dissociation constant of the complex between target and ligand, obtained from inhibition or displacement – was found to be 11.1 ± 1.16 µM.

Regarding `CS(=O)(=O)Nc1cccc(C#Cc2cc(NC(=O)c3ccc(O[C@H]4CCNC4)c(-c4ccc(F)c(F)c4)c3)ccc2O[C@H]2CCNC2)c1` [Compound 101], the Ki worked out at 56.2 ± 7.64 µM.

In the case of `O=C(Nc1ccc(O[C@H]2CCNC2)c(-c2ccc(-c3nn[nH]n3)cc2)c1)c1ccc(O[C@H]2CCNC2)c(-c2ccc(F)c(F)c2)c1` [Compound 91l, 3′,4′-Difluoro-6-((S)-pyrrolidin-3-yloxy)-N-(6-((S)-pyrrolidin-3-yloxy)-4′-(2h-tetrazol-5-yl)-[1,1′-biphenyl]-3-yl)-[1,1′-biphenyl]-3-carboxamide dihydrochloride], the Ki turned out to be 19.9 ± 4.87 µM.

Consider `O=C(Nc1cnc(O[C@H]2CCNC2)c(-c2ccc(F)cc2)c1)c1ccc(O[C@H]2CCNC2)c(-c2ccc(F)c(F)c2)c1` [Compound 84a, 3′,4′-Difluoro-N-(5-(4-fluorophenyl)-6-((S)-pyrrolidin-3-yloxy)pyridin-3-yl)-6-((S)-pyrrolidin-3-yloxy)-[1,1′-biphenyl]-3-carboxamide dihydrochloride], for which the Ki was 78.6 ± 10.4 µM.

Turning to `Cl.NCCOc1ccc(C(=O)Nc2cccc(-c3ccc(F)cc3)c2)cc1-c1ccc(F)c(F)c1` [Compound 13, 2-((3′,4′-Difluoro-5-((4′-fluoro-[1,1′-biphenyl]-3-yl)carbamoyl)-[1,1′-biphenyl]-2-yl)oxy) ethanaminium chloride], the Ki is 29.3 ± 3.85 µM.

Turning to `NC(=O)c1ccc(-c2cc(NC(=O)c3ccc(O[C@H]4CCNC4)c(-c4ccc(F)c(F)c4)c3)ccc2O[C@H]2CCNC2)cc1` [Compound 91h, N-(4′-carbamoyl-6-((S)-pyrrolidin-3-yloxy)-[1,1′-biphenyl]-3-yl)-3′,4′-difluoro-6-((S)-pyrrolidin-3-yloxy)-[1,1′-biphenyl]-3-carboxamide dihydrochloride], the Ki came out at 51.7 ± 6.15 µM.

As for `O=C(Nc1ccc(O[C@H]2CCNC2)c(-c2ccccc2C(F)(F)F)c1)c1ccc(O[C@H]2CCNC2)c(-c2ccc(F)c(F)c2)c1` [Compound 91d, 3′,4′-Difluoro-6-((S)-pyrrolidin-3-yloxy)-N-(6-((S)-pyrrolidin-3-yloxy)-2′-(trifluoromethyl)-[1,1′-biphenyl]-3-yl)-[1,1′-biphenyl]-3-carboxamide dihydrochloride], the Ki was determined as 54.8 ± 6.24 µM.

Regarding `COC(=O)c1ccc(OCCNC(=O)OC(C)(C)C)c(-c2ccc(F)cc2)c1` [Compound 31, Methyl-6-(2-((tert-butoxycarbonyl)amino)ethoxy)-4′-fluoro-[1,1′-biphenyl]-3-carboxylate], the Ki is 180 ± 4.84 µM.

With `O=C(Nc1ccc(O[C@H]2CCNC2)c(-c2ccc(F)cc2)c1)c1ccc(O[C@H]2CCNC2)c(-c2ccc(F)nc2)c1` [Compound 95, N-(4′-fluoro-6-((S)-pyrrolidin-3-yloxy)-[1,1′-biphenyl]-3-yl)-3-(6-fluoropyridin-3-yl)-4-((S)-pyrrolidin-3-yloxy)benzamide dihydrochloride], the Ki was found to be 244 ± 13.3 µM.

With `CS(=O)(=O)Nc1cccc(-c2cc(NC(=O)c3ccc(O[C@H]4CCNC4)c(-c4ccc(F)c(F)c4)c3)ccc2O[C@H]2CCNC2)c1` [Compound 102], the Ki was 126 ± 10.3 µM.

`Cc1ccccc1-c1cc(NC(=O)c2ccc(O[C@H]3CCNC3)c(-c3ccc(F)c(F)c3)c2)ccc1O[C@H]1CCNC1` [Compound 91a, 3′,4′-Difluoro-N-(2′-methyl-6-((S)-pyrrolidin-3-yloxy)-[1,1′-biphenyl]-3-yl)-6-((S)-pyrrolidin-3-yloxy)-[1,1′-biphenyl]-3-carboxamide dihydrochloride]: the inhibition constant (Ki) was found to be 36 ± 7.21 µM.

On to `O=C(O)c1ccc(-c2cc(NC(=O)c3ccc(O[C@H]4CCNC4)c(-c4ccc(F)c(F)c4)c3)ccc2O[C@H]2CCNC2)cc1` [Compound 99], for which the Ki came to 156 ± 3.96 µM.

Take `N#Cc1cccc(-c2cc(NC(=O)c3ccc(O[C@H]4CCNC4)c(-c4ccc(F)c(F)c4)c3)ccc2O[C@H]2CCNC2)c1` [Compound 91e, N-(3′-cyano-6-((S)-pyrrolidin-3-yloxy)-[1,1′-biphenyl]-3-yl)-3′,4′-difluoro-6-((S)-pyrrolidin-3-yloxy)-[1,1′-biphenyl]-3-carboxamide dihydrochloride]: the Ki turned out to be 25.9 ± 5.58 µM.

On to `CC(=O)Nc1cccc(-c2cc(NC(=O)c3ccc(O[C@H]4CCNC4)c(-c4ccc(F)c(F)c4)c3)ccc2O[C@H]2CCNC2)c1` [Compound 103], for which the Ki came out at 96.4 ± 9.78 µM.

As to `O=C(Nc1cnc(O[C@H]2CCNC2)c(-c2ccc(F)cc2)c1)c1cnc(O[C@H]2CCNC2)c(-c2ccc(F)c(F)c2)c1` [Compound 84c, 5-(3,4-difluorophenyl)-N-(5-(4-fluorophenyl)-6-((S)-pyrrolidin-3-yloxy)pyridin-3-yl)-6-((S)-pyrrolidin-3-yloxy)nicotinamide dihydrochloride], the inhibition constant (Ki) was 68.6 ± 14.9 µM.

With `NCCOc1ccc(C(=O)Nc2cccc(-c3ccc(Cl)cc3F)c2)cc1-c1ccc(F)cc1` [Compound 12, 2-((5-((4′-Chloro-2′-fluoro-[1,1′-biphenyl]-3-yl)carbamoyl)-4′-fluoro-[1,1′-biphenyl]-2-yl)oxy) ethanaminium chloride], the Ki came out at 149 ± 5.69 µM.

As for `O=C(O)c1cccc(-c2cc(NC(=O)c3ccc(O[C@H]4CCNC4)c(-c4ccc(F)c(F)c4)c3)ccc2O[C@H]2CCNC2)c1` [Compound 98], the Ki amounted to 180 ± 4.84 µM.

Consider `O=C(Nc1ccc(O[C@H]2CCNC2)c(-c2ccc(F)cc2)c1)c1ccc(O[C@H]2CCNC2)c(-c2ccc3ccccc3c2)c1` [Compound 25, (S)-3-((4′-fluoro-5-(3-(naphthalen-2-yl)-4-((S)-pyrrolidin-1-ium-3-yloxy)benzamido)-[1,1′-biphenyl]-2-yl)oxy) pyrrolidin-1-ium chloride], for which the Ki is 8.45 ± 2.65 µM.

`Cc1cc(C(=O)Nc2ccc(O[C@H]3CCNC3)c(-c3ccc(F)cc3)c2)ccc1O[C@H]1CCNC1` [Compound 24, (S)-3-((4′-fluoro-5-(3-methyl-4-((S)-pyrrolidin-1-ium-3-yloxy)benzamido)-[1,1′-biphenyl]-2-yl)oxy) pyrrolidin-1-ium chloride]: the Ki was 201 ± 9.29 µM.

With `O=C(Nc1ccc(O[C@H]2CCNC2)c(-c2ccc(F)cc2)c1)c1ccc(O[C@H]2CCNC2)c(-c2ccc3cc(F)ccc3c2)c1` [Compound 96], the Ki came out at 7.17 ± 1.3 µM.

Consider `O=C(Nc1ccc(O[C@H]2CCNC2)c(-c2ccc(F)cc2)c1)c1cnc(O[C@H]2CCNC2)c(-c2ccc(F)c(F)c2)c1` [Compound 84b, 5-(3,4-difluorophenyl)-N-(4′-fluoro-6-((S)-pyrrolidin-3-yloxy)-[1,1′-biphenyl]-3-yl)-6-((S)-pyrrolidin-3-yloxy)nicomide dihydrochloride], for which the Ki worked out at 84.2 ± 14.8 µM.

For the molecule `O=C(Nc1ccc(O[C@H]2CCNC2)c(-c2ccc(F)nc2)c1)c1ccc(O[C@H]2CCNC2)c(-c2ccc(F)c(F)c2)c1` [Compound 91m, 3′,4′-Difluoro-N-(3-(6-fluoropyridin-3-yl)-4-((S)-pyrrolidin-3-yloxy)phenyl)-6-((S)-pyrrolidin-3-yloxy)-[1,1′-biphenyl]-3-carboxamide dihydrochloride], the Ki was found to be 124 ± 10.4 µM.
